In patent publication US20230287044A1, “NOVEL ANTIBACTERIAL PEPTIDE AND USE THEREOF” (priority 2020, published 2023):
≈ marks a conversion by molar mass, not a printed value. Square brackets hold non-standard residues; d marks the D form. Peptide text beside a SMILES is read from it.

How the values were obtained:
[1] = Solubility of antibacterial peptides in solution; format: physicochemical
[2] = tested on: MRPA (P. aeruginosa) CCARM 2180; format: cell-based, Pseudomonas aeruginosa; conditions: CCARM 2180, 18 h
In short: (§1)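 Mid-log cultures grown in CAMHB and diluted to 1× 10^6 cfu/ml in PBS were mixed with an equal volume of peptide in CAMHB (80 µM to 0.63 µM twofold dilutions). MIC taken as the mean of three independent experiments.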

[3] = tested on: MRAB (A. baumannii) ATCC BAA 1605; format: cell-based, Acinetobacter baumannii; conditions: CAMHB, 37° C., 18 hours; average of three experiments
In short: as §1

[4] = tested on: MRSA (S. aureus) KCCM 40510; format: cell-based, Staphylococcus aureus; conditions: KCCM 40510, 18 h
In short: as §1

[5] = tested on: VRE (E. faecalis) ATCC 51575; format: cell-based, Enterococcus faecalis; conditions: ATCC 51575, 18 h
In short: as §1

[6] = tested on: 30 species of Acinetobacter baumannii (A. baumannii); format: cell-based; conditions: against 30 species of Acinetobacter baumannii
Procedure: In addition, the results obtained by measuring the minimum inhibitory concentrations of KSH29, KSH42 and KSH43 against 30 species of Acinetobacter baumannii (A. baumannii) are shown in Table 4 below.
The minimum inhibitory concentrations (MIC) against the 30 species of Acinetobacter baumannii were measured in the following manner.
The strain 1605 was purchased from ATCC (American Type Culture Collection, USA). In addition, the strain 40203 was purchased from the Korean Culture Center of Microorganisms.
The COL^R refers to resistance to colistin, the TGC^R refers to resistance to tigecycline, and the TGC^I refers to tigecycline intermediate strains.

[7] = tested on: E. coli; assay: In vivo antibacterial activity in mice (survival rate after E. coli infection); set-up: species or system mice (BALB/c); conditions: E. coli 1 × 10^6 cfu/mouse subcutaneous; 100 mg/kg after 1, 24 and 48 hours; observed 7 days
Procedure: The results obtained by analyzing the antibacterial activity against bacteria (E. coli) according to treatment with KSH43 as a survival rate of mice (BALB/c, female. 7-weeks) are shown in FIG. 216.
Specifically, the strains were grown in CAMHB until the log phase, and then washed with PBS buffer, and infected by subcutaneous injection into mice to 1 × 10^6 cfu/mouse. After 1 hour, 24 hours, and 48 hours, KSH43 and PBS (negative control) were administered at a dose of 100 mg/kg. Thereafter, the survival rate of the mice was checked every 12 hours for 7 days and compared to measure the in vivo antibacterial activity.

For `CC[C@@H](C)[C@@H](NC(=O)[C@@H](Cc1c[nH]c2ccccc12)NC(=O)[C@@H](CCCNC(=N)N)NC(=O)[C@@H](CCCNC(=N)N)NC(=O)[C@H](N)CCCNC(=N)N)C(=O)N[C@H](Cc1c[nH]c2ccccc12)C(=O)N[C@@H](C(=O)N[C@H](CC(C)C)C(=O)N[C@H](Cc1c[nH]c2ccccc12)C(=O)N[C@H](CCCCN)C(N)=O)C(C)C` [KSH43, rrrwiwvlwk] (H-[dR][dR][dR][dW][dI][dW][dV][dL][dW][dK]-NH2; N-terminus assumed), which solubility at 12 h ([1]; aqueous buffer) is on record?
Its solubility at 12 h is > 200 µM.

What about the solubility at 12 h ([1]; plasma or biological fluid) of the same compound?
Its solubility at 12 h is > 25 µM.

What about the solubility at 12 h ([1]; water) of the same compound?
The solubility at 12 h was > 2000 µM.

And the “MIC MRPA (P. aeruginosa) CCARM 2180” value [2]?
The value was 1.25 µM (≈ 1.87 µg/mL).

And the “MIC MRAB (A. baumannii) ATCC BAA 1605” value [3]?
The value was 0.63 µM (≈ 0.944 µg/mL).

And the “MIC MRSA (S. aureus) KCCM 40510” value [4]?
The value was 0.63 µM (≈ 0.944 µg/mL).

And the “MIC VRE (E. faecalis) ATCC 51575” value [5]?
Its value is 0.63 µM (≈ 0.944 µg/mL).

And the MIC50 [6]?
Its MIC50 is 0.63 µM (≈ 0.944 µg/mL).

What about the MIC90 [6] of the same compound?
Its MIC90 is 1.25 µM (≈ 1.87 µg/mL).

What about the “survival rate of mice” value [7] of the same compound?
The value was “all mice administered with KSH43 survived for 7 days”.
